Usually CC50 stands for the concentration giving 50% cytotoxicity. Lower therefore signals greater toxicity to the cells. For orientation: pEC50 means −log10 of the EC50, conventionally taken in molar units.

The values that follow come from article PMC7805210, “Study on suitable analysis method for HIV-1 non-catalytic integrase inhibitor” (Virology Journal, 2021).

pEC50: −log10 of the molar value. Some results are limits rather than exact numbers.

Data set [1] is described as follows: Cell cytotoxicity by WST method (EZ-Cytox) in TZM-bl cells. Type of data set: cell-based. Conditions: human, 2 days incubation. As for the experimental part: (§1) To determine the cytotoxicity of anti-HIV drugs, cell viability was assessed via the water-soluble tetrazolium salt (WST) method using an EZ-Cytox kit (Daeil Lab Service, Seoul, Korea) according to the manufacturer’s instructions. […] Cells were treated with serial dilutions of each drug ([…] dilutions from 50,000 to 2.54 nM). On days 2 and 5 of incubation, 10 μl EZ-Cytox solution was added to each well and incubated for 2 h, followed by spectrophotometric measurement of absorbance at 540 nm.

In data set [2] the target is T1, HIV-1 integrase (Human immunodeficiency virus type 1 group M subtype B, UniProt P04585).
T1 construct: 100 μl IN enzyme solution was added to each well; purchased XpressBio, Frederick, MD
As to the kind of experiment: Strand transfer inhibition assay (HIV-1 integrase assay kit). Type of data set: biochemical. The following applies: read-out: strand transfer inhibitory activity. The protocol: The strand transfer assay was performed using the HIV-1 integrase assay kit (XpressBio, Frederick, MD) according to the manufacturer’s instructions. Briefly, 100 μl of 1X donor substrate DNA (DS DNA) solution was added to each well and incubated for 30 min at 37 °C. The liquid was aspirated from the wells and washed 5 times with 300 μl wash buffer, followed by incubation with 200 μl blocking buffer per well for 30 min at 37 °C. Following aspiration of the liquid, wells were washed three times with 200 μl reaction buffer. Next, 100 μl IN enzyme solution was added to each well and incubated under similar conditions followed by removal of liquid and three washes with 200 μl reaction buffer. Each test sample was fivefold serially diluted (from 1000 to 8 μM) in reaction buffer and 50 μl aliquots added per well. After 5 min incubation at room temperature, 50 μl 1X target substrate DNA (TS DNA) solution was directly added to the 50 μl test sample within the wells. Reactions were mixed by tapping the plate gently 3–5 times and incubating for 30 min at 37 °C, washed 5 times with 300 μl wash solution and incubated with 100 μl HRP antibody for 30 min at 37 °C. After washing the plate under the same conditions, 100 μl TMB peroxidase substrate solution was added per well and incubated for 10 min at room temperature. To terminate the reaction, 100 μl TMB stop solution was directly added to wells and absorbance read using a plate reader at 450 nm.
Fig.3 Strand transfer inhibition efficiency of catalytic and non-catalytic integrase inhibitors. a Schematic diagram of the strand transfer assay process. The yellow and blue boxes represent the response under conditions of no IN inhibitor or INSTI, respectively. b Integrase inhibitor compounds at a range of concentrations generated from fivefold serial dilutions were used to treat 3′-end cleaved LTR DS DNA by integrase. After incubation, TS DNA was added to each well for the strand transfer reaction. The reaction products were detected colorimetrically using a HRP-labeled antibody against modified target DNA. "No integrase" and "Integrase only" wells were set as the negative and positive control, respectively

Data set [3] in a line: Cell cytotoxicity by WST method (EZ-Cytox) in MT2 cells. Type of data set: cell-based. Conditions: human, 5 days incubation. The protocol:
as §1

In data set [4] the test system is HxB2, NL4.3 and a recombinant NL4.3 strain. The following applies: against HxB2, NL4.3 and a recombinant NL4.3 strain; cited from earlier work.
For data set [5], the system named is HIV-1 AD8 strain. As to the kind of experiment: Antiviral activity test using the TZM-bl cell luciferase system. The following applies: for pEC50: Human immunodeficiency virus 1, TZM-bl, 48 h. As for the experimental part: TZM-bl cells were seeded on 96-well cell culture plates at a density of 1 × 10^4 cells/well and cultured overnight. Each drug was twofold serially diluted from 10,000 to 0.15 nM and treated to cells. After a 30 min incubation period, viral infection was performed with 500 TCID50 of HIV-1 AD8. Cells were cultured for 48 h after infection and luciferase activity measured using Beetle-Lysis Juice (PJK GmbH, Kleinblittersdorf, Germany) according to the manufacturer’s instructions. Briefly, the medium was removed, and cells washed three times with 200 μl PBS. Next, 100 μl Beetle-Lysis Juice containing luciferin and ATP were added to each well and incubated for 5 min with protection from sunlight. Subsequently, luciferase activity was measured using a micro beta counter (PerkinElmer, Waltham, MA) after transferring solutions to a white 96-well plate. Anti-HIV efficacy of drugs was determined based on reduced expression of luciferase relative to the virus-only treatment group.
Fig.1 Determination of antiviral activities of integrase inhibitors in the TZM-bl cell line system. Integrase inhibitors were serially diluted and incubated with 1 × 10^4 TZM-bl cells per well during 30 min, followed by infection with 500 TCID50 of HIV-1 AD8 strain. For determination of antiviral efficacy, luciferase activity was measured after 48 h of incubation. Cell culture media of non-infected and infected cells without HIV drug treatment were set as the negative and positive control, respectively.

Data set [6] addresses T1, HIV-1 integrase. As to the kind of experiment: 3'-processing inhibition assay (modified strand transfer assay, inhibitor pre-incubated with IN). Format: biochemical. The following applies: 20 nM IN pre-incubated 30 min.
Experimental: To confirm the 3′-processing inhibition activity NCINI, the strand transfer inhibition assay was modified. The plate coating process with DS DNA was conducted in a similar manner. […] Reaction of integrase first with the drug before its reaction with DS DNA is a necessary step to validate the 3′-processing inhibitory activity of the compound. The integrase-inhibitor mixture was added to LTR DS DNA-conjugated 96-well plates. Subsequent steps were conducted in a similar manner as the strand transfer assay.
The subsequent steps were the same as the strand transfer assay protocol (Fig. 4a).
The 3′-processing inhibition assay was performed by modifying the protocol of the strand transfer assay. […] Before addition of LTR dsDNA, fivefold serially diluted integrase inhibitors were incubated with 20 nM integrase for 30 min. The integrase-inhibitor mixtures were treated with LTR dsDNA-conjugated 96-well plates. After incubation, target DNA was added to each well for the strand transfer reaction and the products detected colorimetrically using a HRP-labeled antibody against 3′-modified target DNA. "No integrase" and "integrase-only" wells were set as the negative and positive control, respectively
The target of data set [7] is integrase strand transfer. Conditions: does not inhibit strand transfer; cited from earlier work.
Data set [8] concerns HIV-1 AD8 strain. As to the kind of experiment: p24 ELISA antiviral activity in infected MT2 cells. Conditions: for pEC50: Human immunodeficiency virus 1, MT2, 120 h; for SI value (CC50/EC50): MT2 cell system. As for the experimental part:
ELISA was conducted to detect HIV-1 p24 for assessment of antiviral activity using a HIV-1 p24 ELISA kit (XpressBio, Frederick, MD). To this end, MT2 cells seeded on a 96-well cell culture plate at a density of a 1 × 10^4 cells/well were infected with 500 TCID50 of HIV-1 AD8 strain. Each drug was serially diluted threefold (from 10,000 to 0.51 nM) for treatment of cells. After five days of culture at 37 °C with 5% CO2, 100 μl of culture medium was harvested and supernatant obtained by centrifugation for 5 min at 5000 rpm (8400 rcf), with storage at − 80 °C. Cell culture media of non-infected and infected cells without INI treatment were set as the negative and positive control, respectively. The ELISA procedure was conducted according to the manufacturer’s instructions. Briefly, samples were mixed with 20 μl lysis buffer, 200 μl aliquots pipetted into a microplate, and incubated for 1 h at 37 °C. After incubation, the contents of the wells were aspirated and microtitration plates washed six times with 350 μl wash buffer. Each well was treated with 100 μl detection antibody for 1 h at 37 °C, which was subsequently removed by washing under the same conditions. An aliquot (100 μl) of streptavidin-HRP conjugate was added into each well, followed by incubation at room temperature for 30 min. After washing under the same conditions, 100 μl substrate solution was immediately dispensed into each well and incubated for 30 min at room temperature with protection from direct sunlight. For termination of the reaction, 100 μl stop solution was added to each well and absorbance values at 450 nm immediately read using a microplate reader.
MT2 cells infected with 500 TCID50 of HIV-1 AD8 strain were treated with a range of concentrations of each drug. At 5 days post-infection, cell culture media were harvested for p24 ELISA. Media of non-infected and infected cells without HIV drug treatment were set as the negative or positive control, respectively.
In general terms: An ELISA detects its analyte on a solid surface through an enzyme-linked reagent.

In turn, `Cc1nc2ccccc2c(-c2ccc3c4c(ccnc24)CCO3)c1[C@H](OC(C)(C)C)C(=O)O` [BI 224436] returned a CC50 at 2 days in data set [1] greater than 50000 nM. The inhibition at 8 µM in data set [2] is 20%. For the same compound, in data set [2] (at 1000 μM), the inhibition at 1000 µM is 36%. The compound further showed a CC50 at 5 days in data set [3] greater than 50000 nM. In addition, the negative-log EC50 (pEC50) in data set [4] was 7.57 to 7.96; in data set [5] it was 6.25; in data set [7] it was less than 4.30; in data set [8] it was 7.54. Further, the “IN inhibition activity (3'-processing, modified protocol)” value in data set [6] (at 3.2 μM) is on record as 80.65%; in data set [6] (at 2000 μM), 87.14%.
On to `C[C@@H]1CCO[C@H]2Cn3cc(C(=O)NCc4ccc(F)cc4F)c(=O)c(O)c3C(=O)N12` [DTG, Dolutegravir], for which the cytotoxic concentration (CC50) at 2 days in data set [1] was greater than 50000 nM. The inhibition at 8 µM in data set [2] is greater than 50%. The same compound yielded a CC50 at 5 days in data set [3] of 1740 nM. Also, the negative-log EC50 (pEC50) in data set [5] was 8.80. In addition, in data set [8], the pEC50 is greater than 9.29 and the “SI value (CC50/EC50)” value is greater than 3413.60.
With `COc1cc2c(cc1Cc1cccc(Cl)c1F)c(=O)c(C(=O)O)cn2[C@H](CO)C(C)C` [EVG, Elvitegravir], the CC50 at 2 days in data set [1] is 26000 nM. Further, it took 1260 nM to reach half-maximal cytotoxicity in data set [3] (CC50 at 5 days). Besides, the negative logarithm of the EC50 (pEC50) was greater than 9.82 in data set [5] and greater than 9.29 in data set [8].
On to `Cc1nnc(C(=O)NC(C)(C)c2nc(C(=O)NCc3ccc(F)cc3)c(O)c(=O)n2C)o1` [RAL, Raltegravir], for which the CC50 at 2 days in data set [1] was greater than 50000 nM. The inhibition at 8 µM in data set [2] is greater than 50%. In addition, in data set [3], the cytotoxic concentration (CC50) at 5 days turned out to be 6420 nM. In addition, the pEC50 in data set [5] is 7.98; in data set [8], 9.24. Moreover, the “SI value (CC50/EC50)” value in data set [5] (TZM-bl cell system) is greater than 4816.96; in data set [8], 11,075.19.
